Measurements reported in publication PMC6222843, “Reversal Effect of Oxypeucedanin on P-glycoprotein-mediated Drug Transport” (Molecules : A Journal of Synthetic Chemistry and Natural …, 2018).
Structures can show the parent of a compound that is named as a salt. Where two headings read alike, the source gives them in different places.

Key:
MDR1 = assay: RT-qPCR of MDR1 mRNA expression in MDCK-MDR1 cells; format: cell-based, human; details: OPD 3.5, 17.5 and 70 μmol/L for 48 h, compared to untreated cells
Experimental: MDCK-MDR1 cells were cultured for 5 days and treated with different concentrations of OPD (3.5, 17.5 and 70 μmol/L) for 48 h to measure MDR1 gene expression level. The total celluar RNA was extracted by the RNA easy Total RNA mini kit and reverse transcribed to cDNA with reverse transcription kit according to the manufacturer’s protocol. PCR primer design and synthesis were performed by the primer design software provided by Applied Biosystems. Primer sequences for MDR1 and hRpIPIv-F (loading internal control) genes are as follows: human hRpIP1v-F forward, 5′-[…]-3′; human hRpIP1v-F reverse, 5′-[…]-3′; human MDR1 forward, 5′-[…]-3′, human MDR1 reverse, 5′-[…]-3′. PCR amplification was performed using Power SYBR Green PCR Mix according to the manufacturer’s protocol (Life Technologies, Carlsbad, CA, USA).

[1] = target: recombinant human P-gp membranes (Homo sapiens, UniProt P08183); details: compared to basal P-gp ATPase activity
Experimental: P-gp ATPase activity was measured using P-gp-Glo™ assay systems kit according to the manufacturer’s instructions, the method detail of which was also described in our previous study [29]. […] After 40 min, ATP detection reagent was added, respectively. The unconsumed ATP detection reagent reacted with luciferase at room temperature for 20 min and the chemiluminescence intensity was detected. The average relative light units (RLU) was calculated as follows:RLUNa3VO4 − RLUNT = ΔRLUbasal(1) RLUNa3VO4 − RLUTC = ΔRLUTC(2)
ΔRLUbasal, the decrease in luminescence of the untreated group (RLUNT) compared to the Na3VO4 group (RLUNa3VO4), represents the basal P-gp ATPase activity. ΔRLUTC, the decrease in luminescence of the test compound-treated group (RLUTC) compared to the Na3VO4 group (RLUNa3VO4), indicates the P-gp ATPase activity in the presence of the test compound. The decrease in luminescence reflect ATP consumption by P-gp and is proportional to P-gp activity.

MDCK-MDR1 cells = assay: MTT assay, viability of MDCK-MDR1 cells; format: cell-based, canine
Experimental: The effects of OPD and VCR on the viability of MDCK-MDR1 cells were observed by a MTT assay.
MDCK-MDR1 Cells were obtained from Shanghai Zhongya Institute of Biological Genes Institute (CinoAsia Co., Ltd., Shanghai, China). Cells were cultured as previously described. In brief, cells were cultured in high glucose DMEM medium supplemented with 10% fetal bovine serum (FBS), 1% non-essential amino acids, 1% L-glutamine, and a penicillin-streptomycin double antibiotic solution. Cells were incubated at 37 °C with 5% CO2 and cell medium was changed every other day.

P-gp = assay: Western blotting of P-gp protein expression in MDCK-MDR1 cells; format: cell-based, canine; details: OPD 17.5 and 70 μmol/L for 48 h, in comparison with control group
Experimental: MDCK-MDR1 cells treated with different concentrations of OPD (3.5, 17.5 and 70 μmol/L) for 48 h were subject to western blotting for determination of P-gp protein level. Cells were washed 3 times with PBS. Total protein was extracted and the protein concentrations were measured according to the manufacturer’s instructions. Cell protein were denatured at 70 °C for 10 min. Protein samples with equivalent amounts were loaded and separated by 10% SDS-polyacrylamide gel electrophoresis and transferred to a polyvinylidene difluoride membranes. Membranes were blocked in 5% powdered non-fat milk solution for 4 h at room temperature and incubated with anti-P-gp primary antibody (GADPH was used as a loading control) overnight at 4 °C followed by an goat anti-mouse IgG secondary antibody (1:5000 dilutions) for 4 h at room temperature. Membranes were incubated with an ECL chromogenic solution for 4 min in the dark. The target protein bands were detected and protein intensity was calculated by a gel imaging system (Beta 3, Bio-Rad, Irvine, CA, USA).

[2] = Plasma pharmacokinetics of DTX in rats with or without OPD (LC-MS/MS); details: male, Sprague-Dawley, rat, po, 50 mg/kg
Experimental: Ten 8-week-old male Sprague-Dawley rats were randomly divided into the following two groups (5 rats in each group). Group 1: rats were administered a single oral dose of 50 mg/kg of DTX dissolved in 0.5% CMC-Na. […] Blood samples were centrifuged for 10 min at approximately 4000 rpm. 100 µL of plasma was collected from the upper layer, and mixed with 20 µL of taxol internal standard solution for 30 s followed by 500 µL of methanol for 3 min, then centrifuged at 15,000 rpm for 10 min. The supernatant was separated and collected. 5 μL of the supernatant was injected into the LC-MS/MS system for detection and quantification.
Separation was performed on a ZORBAX Extend-C18 (2.1 × 100 mm, 3.5 µm, Agilent, Palo Alto, CA, USA). The column oven was maintained at 25 °C.

[3] = Transport of VCR across MDCK-MDR1 cell monolayer (A→B); format: in vitro ADME, canine; details: dog, MDCK-MDR1, pH 7.4, VCR 264.46 μmol/L alone, 37 °C, n = 3
Experimental: Briefly, cell monolayers were pre-incubated in Hank’s buffered salt solution (HBSS, pH 7.4) for 30 min at 37 °C. Trans-epithelial electric resistance (TEER) values of the MDCK-MDR1 cell monolayer ranged from 500 to 800 Ω·cm^2. All drugs were dissolved in DMSO and diluted in HBSS. The final concentration of DMSO is less than 1%. […] After treatments, cells were incubated at 37 °C for 2 h. After 2 h, 500 µL aliquots were taken from the basal side, mixed with 500 µL methanol, vortexed 2 min and then centrifuged for 10 min at 16,000 rpm. The supernatants were collected to measure the concentrations of compounds by high performance liquid-chromatography/mass spectroscopy (LC-MS/MS). Apparent permeability (Papp) values are calculated from the relationship: Papp=dQ/dt/A×C0 where dQ/dt is the cumulative transport rate of the compound on the receiving side (µg/s), A is the surface area of the cell monolayer (cm^2), and C0 is the initial concentration in the donor compartment (µg/mL).

Chain of recombinant human P-gp membranes (P08183 whole entry): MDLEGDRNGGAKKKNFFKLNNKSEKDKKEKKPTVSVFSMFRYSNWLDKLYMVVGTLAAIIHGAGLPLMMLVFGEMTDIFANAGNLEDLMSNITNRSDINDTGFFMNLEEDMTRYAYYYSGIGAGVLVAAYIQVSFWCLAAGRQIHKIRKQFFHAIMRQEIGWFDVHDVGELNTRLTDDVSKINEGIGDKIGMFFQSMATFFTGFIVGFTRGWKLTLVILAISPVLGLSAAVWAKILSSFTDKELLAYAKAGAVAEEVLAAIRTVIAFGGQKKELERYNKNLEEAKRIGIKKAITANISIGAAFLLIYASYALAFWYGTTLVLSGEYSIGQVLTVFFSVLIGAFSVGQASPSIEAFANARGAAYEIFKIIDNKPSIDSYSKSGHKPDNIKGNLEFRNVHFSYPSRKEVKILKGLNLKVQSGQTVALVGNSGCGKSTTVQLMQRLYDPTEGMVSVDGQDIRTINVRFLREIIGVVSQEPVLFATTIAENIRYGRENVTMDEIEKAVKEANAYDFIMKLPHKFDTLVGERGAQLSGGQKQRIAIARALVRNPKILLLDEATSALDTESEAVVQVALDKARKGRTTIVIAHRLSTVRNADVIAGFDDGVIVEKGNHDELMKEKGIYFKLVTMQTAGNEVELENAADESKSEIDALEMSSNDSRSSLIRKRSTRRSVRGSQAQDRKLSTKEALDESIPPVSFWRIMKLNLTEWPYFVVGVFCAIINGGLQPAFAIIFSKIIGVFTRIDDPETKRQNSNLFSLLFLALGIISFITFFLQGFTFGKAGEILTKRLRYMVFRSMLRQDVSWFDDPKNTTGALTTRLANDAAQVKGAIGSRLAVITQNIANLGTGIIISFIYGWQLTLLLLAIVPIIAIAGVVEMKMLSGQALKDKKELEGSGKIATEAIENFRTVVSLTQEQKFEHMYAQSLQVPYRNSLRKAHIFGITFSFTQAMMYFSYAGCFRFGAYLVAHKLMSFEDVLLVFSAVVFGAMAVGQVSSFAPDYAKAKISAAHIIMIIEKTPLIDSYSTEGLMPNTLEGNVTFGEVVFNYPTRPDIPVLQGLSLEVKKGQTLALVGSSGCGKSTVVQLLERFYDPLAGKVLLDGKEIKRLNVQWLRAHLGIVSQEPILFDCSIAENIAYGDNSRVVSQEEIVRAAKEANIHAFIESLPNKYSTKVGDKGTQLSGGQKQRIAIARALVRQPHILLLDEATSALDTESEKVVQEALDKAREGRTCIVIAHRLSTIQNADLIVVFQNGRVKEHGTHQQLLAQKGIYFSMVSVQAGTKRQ

With `CC1(C)O[C@H]1COc1c2ccoc2cc2oc(=O)ccc12` [OPD, Oxypeucedanin] the “mRNA expression of MDR1” value (MDR1) was “significantly downregulated”, the “increase in P-gp ATPase activity” value ([1]; OPD 3.5 μmol/L) was 0.55 fold and the “increase in P-gp ATPase activity” value ([1]; OPD 17.5 μmol/L) was 0.31 fold. The “increase in P-gp ATPase activity” value ([1]; OPD 70 μmol/L) was 0.50 fold, the “cytotoxicity (viability of MDCK-MDR1 cells, MTT assay)” value (MDCK-MDR1 cells; OPD 3.82, 19.08, 76.30 μmol/L) was “no obvious cytotoxicity” and the P-gp protein expression (P-gp) was “obvious reduction”.
In the case of `CC(=O)O[C@@]12CO[C@@H]1C[C@H](O)[C@@]1(C)C(=O)[C@H](O)C3=C(C)[C@@H](OC(=O)[C@H](O)[C@@H](NC(=O)OC(C)(C)C)c4ccccc4)C[C@@](O)([C@@H](OC(=O)c4ccccc4)[C@H]21)C3(C)C` [DTX, Docetaxel], the AUC(0-inf) [2] is reported as 306 ± 21.1 ng·h/mL, the AUC(0-t) [2] is reported as 276 ± 19.1 ng·h/mL and the Cmax [2] is reported as 118 ± 10.9 ng/mL. The MRT inf [2] was 4.29 ± 0.98 h, the MRT last [2] was 2.96 ± 0.22 h and the half-life [2] was 4.13 ± 1.08 h.
In the case of `CC[C@]1(O)C[C@H]2CN(CCc3c([nH]c4ccccc34)[C@@](C(=O)OC)(c3cc4c(cc3OC)N(C=O)[C@H]3[C@@](O)(C(=O)OC)[C@H](OC(C)=O)[C@]5(CC)C=CCN6CC[C@]43[C@@H]65)C2)C1` [VCR, Vincristine sulfate], the Papp A→B at 2 h, 264.46 μmol/L [3] is reported as 0.37 ± 0.04 ×10⁻⁶ cm/s and the “cytotoxicity (viability of MDCK-MDR1 cells, MTT assay)” value (MDCK-MDR1 cells; VCR 264.46 μmol/L) is reported as “no obvious cytotoxicity”.
